Entries after “also recorded” stand apart in the source; their conditions may differ.
Columns and labels:
lung air-space = details: hyaluronidase alone; cited from earlier work
3H-elastin = details: incubation with 3H-elastin; cited from earlier work
[1] = system: elastase-induced emphysema; assay: Hyaluronidase-elastase model, mean linear intercept measurement of air-space size; assay type: in vivo, Syrian hamsters
Procedure: To determine the effects of hyaluronidase on elastase-induced emphysema, Syrian hamsters received intratracheal instillments of bovine testicular hyaluronidase and, 24 hours later, porcine pancreatic elastase. Controls received: 1) saline followed by elastase, 2) elastase followed by hyaluronidase, and 3) saline followed by saline. Air-space enlargement was measured one week later, using the mean linear intercept method (8). Changes in lung elastin content were determined at 24 and 48 hours by quantifying elastin-specific desmosine and isodesmosine cross-links.
Female Syrian hamsters, weighing approximately 100 gms each, were anesthetized by intramuscular injection of ketamine hydrochloride (10 mg in 0.1 ml). The animals were then placed on a rodent surgical table (Harvard Bioscience, South Natick, Mass.) and restrained with elastic bands. The neck fur was shaved with a scalpel and a 2-cm vertical incision was made through the skin and subcutaneous fat. The underlying muscle was then cut to expose the trachea. A 26-gauge needle mounted on a 1-ml syringe was placed inside the tracheal lumen and 900 unite of highly purified bovine testicular hyaluronidase (Sigma Chemical Co., St. Louis, Mo.), dissolved in 0.3 ml normal saline solution, were delivered to the lungs in small increments. Twenty-four hours later, 20 units of porcine pancreatic elastase (Elastin Products, Pacific, Mo.), dissolved in 0.2 ml saline solution, were instilled by the same method. The incision was then closed with several sutures.

[2] = system: elastase-induced emphysema; assay: Hyaluronic acid-elastase model, mean linear intercept measurement of air-space size; assay type: in vivo, Syrian hamsters; details: 1 week
Procedure: (§1) To test the possibility that addition of hyaluronic acid may inhibit air-space enlargement, Syrian hamsters were instilled with elastase intratracheally, then immediately given 1 mg of bovine tracheal hyaluronic acid by the same route. Controls received elastase followed by saline alone. Changes in air-space size were evaluated one week later, using the mean linear intercept method (8). To determine whether hyaluronic acid has elastase inhibitory capacity, it was incubated with pancreatic elastase in the presence of ^3 H-elastin. Controls contained elastase and ^3 H-elastin alone.
Following intratracheal administration of 20 units of pancreatic elastase (see above procedure), hamsters immediately received, by the same route, 1 mg of bovine tracheal hyaluronic acid (Sigma Chemical Co., St. Louis, Mo.), dissolved in 0.2 ml of saline solution.

pancreatic elastase = assay: Measurement of elastase inhibitory capacity of hyaluronic acid (release of radioactivity from 3H-elastin); assay type: biochemical, porcine; details: 1, 10, 100 μg hyaluronic acid, 1 μg elastase, pH 8.0, 37° C., 22 hours, preincubated with elastase or 3H-elastin
Procedure: as §1
Various amounts of hyaluronic acid (1,10,100 μg) were incubated with pancreatic elastase (1 μg) and ^3 H-elastin in 0.2M Tris buffer, pH 8.0, at 37° C. for 22 hours (7,10). Hyaluronic acid was preincubated with either elastase or ^3 H-elastin for 10 minutes prior to the start of the assay. This was done to allow for the possible binding of one component to another. Following incubation, the samples were filtered, combined with scintillation fluid, and measured for radioactivity. The results were adjusted for nonspecific release of radioactivity and expressed as net counts per minute.

lungs = details: hamster, in vivo
Text: One week after completion of the enzyme instillments, the hamsters were sacrificed by intraperitoneal injection of chloral hydrate. Their lungs were then fixed in-situ by inserting a catheter into the tracheas and allowing 10% neutral-buffered formalin to inflate the tissues at a pressure of 20 cm H2 O. Two hours later, the catheter was removed and the trachea was tied off to minimize deflation. both the lungs and heart were removed from the chest as a single block and additionally fixed in 10% formalin for several days. The lungs were then dissected free of extrapulmonary structures, sectioned randomly, and entirely submitted for histological processing.

For hyaluronidase, the air-space dilation (lung air-space) is given as “does not cause significant air-space dilation”, the “elastase activity of the hyaluronidase preparation” value (3H-elastin) is given as “no elastase activity” and the “mean linear intercept value” ([1]; elastase followed by hyaluronidase (reversed order), 1 week) is given as 95.3 um. The “mean linear intercept value” ([1]; hyaluronidase 900 units intratracheally 24 hours prior to elastase, 1 week) was 128 um, the “effect of hyaluronidase on air-space enlargement” value ([1]; order of enzyme administration reversed (elastase then hyaluronidase)) was “abolished this effect; also recorded: extinguished” and the elastase-induced air-space enlargement ([1]; pre-treatment with hyaluronidase, then elastase, 1 week) was “significantly increased elastase-induced air-space enlargement; also recorded: markedly enhanced”.
In the case of “elastase: porcine pancreatic elastase (Elastin Products), used to induce emphysema”, the “mean linear intercept value” ([1]; saline followed 24 hours later by elastase 20 units (model control), 1 week) is reported as 100 um and the “mean linear intercept (air-space size)” value ([2]; elastase followed immediately by saline (model control)) is reported as 122 um.
With hyaluronic acid the “pancreatic elastase activity (release of radioactivity from 3H-elastin)” value (pancreatic elastase) was “no elastase inhibitory capacity; also recorded: did not reduce ^3 H-elastin breakdown, but instead caused a marked increase in the release of radioactivity; also recorded: does not prevent elastin from being degraded by elastase in-vitro”, the “pancreatic elastase activity (release of radioactivity from 3H-elastin)” value (pancreatic elastase; listed as Hyaluronic acid) was “enhanced, rather than inhibited, pancreatic elastase activity” and the “mean linear intercept (air-space size)” value ([2]; 1 mg hyaluronic acid intratracheally immediately after 20 units elastase, control elastase then saline 122 um) was 82 um. For the same substance, the air-space enlargement ([2]; hyaluronic acid intratracheally immediately after elastase, vs elastase followed by saline) was “significantly reduced the amount of air-space enlargement; also recorded: marked decrease in air-space enlargement; also recorded: marked reduction in air-space enlargement” and the “histological changes of the lungs” value (lungs) was “No specific changes”.
